# pIC50: −log10 of the molar value.
# Target: T1, Interleukin-1 receptor-associated kinase 4 (Homo sapiens, UniProt Q9NWZ3)
# T1 sequence (Q9NWZ3 whole entry): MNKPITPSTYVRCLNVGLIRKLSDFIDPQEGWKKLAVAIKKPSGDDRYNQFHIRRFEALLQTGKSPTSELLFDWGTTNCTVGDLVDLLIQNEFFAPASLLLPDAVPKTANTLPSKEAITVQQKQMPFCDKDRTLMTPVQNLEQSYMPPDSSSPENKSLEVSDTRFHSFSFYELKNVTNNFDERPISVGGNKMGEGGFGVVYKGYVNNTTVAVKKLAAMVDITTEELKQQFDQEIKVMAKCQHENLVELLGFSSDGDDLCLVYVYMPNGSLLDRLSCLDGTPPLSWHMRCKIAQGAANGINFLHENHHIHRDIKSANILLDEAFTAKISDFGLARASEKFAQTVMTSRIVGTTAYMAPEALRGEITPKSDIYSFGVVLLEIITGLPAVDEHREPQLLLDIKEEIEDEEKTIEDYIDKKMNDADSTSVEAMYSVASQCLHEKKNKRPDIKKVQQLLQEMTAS
# Experiment: Inhibition Assay: The assays were performed in U-bottom 384-well plates. […] The reaction was initiated by the combination of IRAK4 with substrates and test compounds. The reaction mixture was incubated at room temperature for 60 min. and terminated by adding 45 μL of 35 mM EDTA to each sample. […] The final concentrations of reagents in the assays are ATP, 500 μM; FL-[…] peptide 1.5 μM; IRAK4, 0.6 nM; and DMSO, 1.6%.
row,Structure (SMILES),pIC50
1,CS[C@H]1CC[C@H](NC(=O)c2cnc(Nc3ncc(C#N)cc3F)cc2NC(C)C)CC1,7.90
2,CCNC(=O)[C@H]1CC[C@H](NC(=O)c2cnc(Nc3ncc(C#N)cc3F)cc2NC(C)C)CC1,8.03
3,CNC(=O)[C@H]1CC[C@H](NC(=O)c2cnc(Nc3ccc(C#N)cn3)cc2NC(C)C)CC1,8.25
4,CC(C)(O)[C@H](F)CNC(=O)c1cnc(Nc2ncncc2Cl)cc1NC1CC1,8.26
5,CC(C)Nc1cc(Nc2ncc(C#N)cc2Cl)ncc1C(=O)NC1CCC(C(C)(C)O)CC1 (stereo unspecified),8.39
6,CC(C)Nc1cc(Nc2ccc(C#N)cn2)ncc1C(=O)NC1CCC(O)(c2ccnn2C)CC1 (stereo unspecified),8.34
7,COC[C@H](F)CNC(=O)c1cnc(Nc2ncc(C#N)cc2F)cc1NC(C)C,7.90
8,CC(C)Nc1cc(Nc2nc(OC3CCNCC3)ncc2Cl)ncc1C(=O)NC[C@@H](F)C(C)(C)O,7.70
9,CC(C)(O)[C@H](F)CNC(=O)c1cnc(Nc2ncc(C#N)cc2Cl)cc1NC1CCOCC1,8.68
10,CC(C)(O)CNc1cc(Nc2ncc(C#N)cc2Cl)ncc1C(=O)NC[C@@H](F)C(C)(C)O,8.03
11,CC(=O)N[C@H]1CC[C@H](NC(=O)c2cnc(Nc3ncncc3Cl)cc2NC(C)C)CC1,7.77
